Source: publication PMC7894426, “Influence of verapamil on the pharmacokinetics of rotundic acid in rats and its potential mechanism” (Pharmaceutical Biology, 2021)
Where two headings read alike, the source gives them in different places. One block for each compound: values may come before it.

Experiments:
[1] = Bidirectional transport across MDCKII-Mock cell monolayers; type: in vitro ADME, canine; settings: dog, MDCK, MDCKII-Mock, 20 min; for efflux ratio at 20 min: read-out: RE (efflux ratio)
Description: (§1) The qualified monolayers were used for transport studies. […] Each experiment was carried out in triplicate.

P-gp [2] = test: Bidirectional transport across Caco-2 cell monolayer; type: in vitro ADME, human; settings: human, Caco-2, rhodamine-123 10 µM
Description: as §1

P-gp [3] = target: P-gp (Homo sapiens, UniProt P08183); test: Bidirectional transport across MDCKII-MDR1 cell monolayers (P-gp substrate assessment)
Description: MDCKII-Mock and MDCKII-MDR1 cells were given as a gift by Fuji Biomedix Co., Ltd. (Japan) and cultured in DMEM supplemented with 10% FBS and 1% antibiotic (10,000 U/mL penicillin and 10 mg/mL streptomycin). Caco-2 cell line, the human epithelial cell used in this assay, was purchased from the Cell Bank of the Chinese Academy of Sciences (Shanghai, China) and maintained between 30 and 45 passages. It was cultured according to the previous report (Guo et al. [2018]; Xiang et al. [2020]). Briefly, the Caco-2 cells were cultured in DMEM supplemented with 10% FBS, 1% NEAA, and 1% antibiotic (10,000 U/mL penicillin and 10 mg/mL streptomycin). All cells were maintained in a 5% CO2 atmosphere and 90% relative humidity at 37 °C.
For transport studies, the MDCKII-Mock, MDCKII-MDR1, and Caco-2 cells were seeded at a density of 2 × 10^5 cells/mL on Costar Transwell inserts (1.12 cm^2 surface, polycarbonate, 12 mm diameter, 0.4 µm pore size). MDCKII-Mock and MDCKII-MDR1 cells were cultured for 5–7 days in medium, for the first four days, the medium was replaced freshly every two days, and then daily. The Caco-2 cells were cultured for 19–21 days in the medium. For the first 2 weeks, the medium was replaced freshly every two days, and then daily. […] The transepithelial electrical resistance (TEER) of the monolayer cells was measured by Millcell ERS-2 (Millipore, USA), and only the monolayer with TEER exceeding 150 Ω·m^2 (MDCKII-Mock and MDCKII-MDR1 cells) and 400 Ω·m^2 (Caco-2 cells) were used for the transport experiment. The membrane integrity and transport function of MDCKII-Mock, MDCKII-MDR1, and Caco-2 cell monolayers were further verified with Lucifer yellow and Rhodamine-123. The qualified monolayers were used for transport studies.
Before the transport studies, the media in both chambers of the transwell were replaced by warm (37 °C) Hank’s balanced salt solution (HBSS), and then the MDCKII-Mock, MDCKII-MDR1, and Caco-2 cell monolayers were incubated at 37 °C and 5% CO2 for 20 min. […] Our transport studies included absorptive direction transport from the apical (AP) side to the basolateral (BL) side and secretory direction transport from the BL side to the AP side. […] After administration, the transwell plate was placed in a thermostatic oscillator shaking at 60 rpm and 37 °C. At 10, 20, 40 and 60 min, respectively, 50 µL incubating sample aliquot was collected from the receiver chamber and immediately replaced by the same volume of fresh HBSS (37 °C). In addition, the membrane integrity of MDCKII-Mock, MDCKII-MDR1, and Caco-2 cell monolayers were evaluated with Lucifer yellow (30 µM) and TEER value, and the efflux activity of P-gp was validated using a typical P-gp substrate rhodamine-123 (10 µM).
The parameters Papp, RE, and NRE were calculated using the following equation: Papp=(ΔQ/Δt)×[1/(A×C0)]

[4] = rats; ref Wang et al. [1994]; cited from earlier work
[5] = tested on: MDCKII-Mock cell monolayers; test: Bidirectional transport across MDCKII-Mock cell monolayers; type: in vitro ADME, canine; settings: MDCKII-Mock monolayer integrity check, Lucifer yellow 30 µM
Description: as §1

Caco-2 cell monolayer = test: Bidirectional transport across Caco-2 cell monolayer; type: in vitro ADME, human; settings: Caco-2 monolayer integrity check, Lucifer yellow 30 µM
Description: as §1

[6] = pH 7.4, with verapamil 50 µM, + 50 µM verapamil

Sequence of P-gp (Homo sapiens, UniProt P08183) (P08183 whole entry): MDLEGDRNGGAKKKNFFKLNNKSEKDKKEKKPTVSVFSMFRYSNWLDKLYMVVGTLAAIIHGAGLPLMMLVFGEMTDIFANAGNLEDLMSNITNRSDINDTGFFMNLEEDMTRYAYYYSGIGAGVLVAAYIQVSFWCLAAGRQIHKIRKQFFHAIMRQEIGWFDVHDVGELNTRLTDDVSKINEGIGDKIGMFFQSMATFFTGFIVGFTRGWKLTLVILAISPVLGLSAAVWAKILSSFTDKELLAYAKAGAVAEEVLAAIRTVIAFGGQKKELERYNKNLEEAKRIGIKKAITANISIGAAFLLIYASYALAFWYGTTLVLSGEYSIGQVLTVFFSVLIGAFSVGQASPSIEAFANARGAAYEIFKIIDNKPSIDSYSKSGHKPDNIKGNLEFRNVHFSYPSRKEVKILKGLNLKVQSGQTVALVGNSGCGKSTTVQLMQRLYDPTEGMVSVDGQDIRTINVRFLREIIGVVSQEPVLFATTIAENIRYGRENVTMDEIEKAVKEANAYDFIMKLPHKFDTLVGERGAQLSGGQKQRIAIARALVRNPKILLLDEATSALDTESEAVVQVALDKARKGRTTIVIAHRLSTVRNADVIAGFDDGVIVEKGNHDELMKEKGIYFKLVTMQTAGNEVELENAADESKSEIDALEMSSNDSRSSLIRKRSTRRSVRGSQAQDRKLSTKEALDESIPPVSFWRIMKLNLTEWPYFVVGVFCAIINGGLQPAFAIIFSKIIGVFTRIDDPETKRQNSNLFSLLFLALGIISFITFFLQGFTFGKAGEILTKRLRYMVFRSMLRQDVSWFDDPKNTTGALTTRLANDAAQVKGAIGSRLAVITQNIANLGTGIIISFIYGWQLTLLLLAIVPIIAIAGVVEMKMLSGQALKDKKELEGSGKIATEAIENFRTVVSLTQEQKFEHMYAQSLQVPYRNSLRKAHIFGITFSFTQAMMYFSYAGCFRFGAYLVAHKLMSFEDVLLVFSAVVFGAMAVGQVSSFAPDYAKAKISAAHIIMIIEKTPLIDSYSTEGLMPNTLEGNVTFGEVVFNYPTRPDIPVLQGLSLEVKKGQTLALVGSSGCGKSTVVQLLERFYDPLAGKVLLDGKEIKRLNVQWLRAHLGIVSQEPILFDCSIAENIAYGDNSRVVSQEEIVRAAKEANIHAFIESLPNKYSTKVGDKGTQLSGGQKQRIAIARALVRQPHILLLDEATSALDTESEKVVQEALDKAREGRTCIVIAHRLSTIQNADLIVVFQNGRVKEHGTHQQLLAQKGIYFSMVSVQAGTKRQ

Papp A→B at 20 min [1, 6]: 0.409 ± 0.0686 ×10⁻⁶ cm/s
Papp B→A at 20 min [1, 6]: 0.538 ± 0.0642 ×10⁻⁶ cm/s
efflux ratio at 20 min [1, 6]: 1.32
Papp A→B at 20 min ([1]; pH 7.4, without verapamil): 0.378 ± 0.0314 ×10⁻⁶ cm/s
Papp B→A at 20 min ([1]; pH 7.4, without verapamil): 0.481 ± 0.0998 ×10⁻⁶ cm/s
efflux ratio at 20 min ([1]; pH 7.4, without verapamil): 1.27
efflux ratio at 10 µM (P-gp [2]; pH 7.4, with verapamil 50 µM, verapamil present (50 µM)): 4.86
efflux ratio at 10 µM (P-gp [2]; pH 7.4, without verapamil): 15.6
Papp A→B at 20 min (P-gp [3]; dog, MDCK-MDR1, pH 7.4): 0.193 ± 0.0535 ×10⁻⁶ cm/s
Papp B→A at 20 min (P-gp [3]; dog, MDCK-MDR1, pH 7.4): 1.78 ± 0.293 ×10⁻⁶ cm/s
efflux ratio at 20 min (P-gp [3]; dog, MDCK-MDR1, pH 7.4): 9.2
Compound: COC(=O)c1ccccc1-c1c2ccc(=N)cc-2oc2cc(N)ccc12 [Rhodamine 123, rhodamine-123]

Compound: CC1(C)[C@@H](O[C@H]2O[C@H](C(=O)O)[C@@H](O)[C@H](O)[C@H]2O[C@@H]2O[C@H](C(=O)O)[C@@H](O)[C@H](O)[C@H]2O)CC[C@]2(C)[C@H]3C(=O)C=C4[C@@H]5C[C@@](C)(C(=O)O)CC[C@]5(C)CC[C@@]4(C)[C@]3(C)CC[C@@H]12 [glycyrrhizin]
bioavailability [4]: 4.0%

Compound: Lucifer yellow
Papp(AP→BL) [5]: 0.463 ± 0.0568 × 10^−6 cm/s
Papp(AP→BL) (Caco-2 cell monolayer): 0.268 ± 0.0346 × 10^−6 cm/s
Papp(AP→BL) (P-gp [3]; MDCKII-MDR1 monolayer integrity check, Lucifer yellow 30 µM): 0.432 ± 0.0468 × 10^−6 cm/s
